Several values for one entry are separate records, joined by “and”; a condition that tells them apart may be missing. Equal entries are not always repeated.

The test system of this assay is S. typhi GFP reporter counter-screen, fluorescence, 4 h. In words: inhibitors in S. typhi counter-screen strain, dose response, counter-screen for PhoP regulon inhibitor project, fluorescence, 4 h (AID 2384).

`Cc1c(N2C(=O)/C(=C3\C(=O)N(CC(=O)O)c4ccccc43)SC2=S)c(=O)n(-c2ccccc2)n1C`: the IC50 is 95.2 µM.

Regarding `Cc1c(CCOC(=O)C2C3CC4CC(C3)CC2C4)sc[n+]1CC(=O)c1ccc(Br)cc1` (stereo not drawn), the IC50 is 25.7 µM.

As to `COc1cccc(Nc2nc(NCC3CCCO3)c3ccccc3n2)c1` (stereo not drawn), the IC50 is 31.1 µM.

As to `c1ccc2c(c1)C(=NC1CCCCC1)NC2=NC1CCCCC1`, the IC50 was 77.2 µM.

Regarding `CN(C)CCNC(=O)/C(=C/c1ccc(-c2ccc(Cl)cc2)o1)NC(=O)c1ccccc1`, the IC50 was 63.1 µM.

On to `c1ccc(CCN2CN(CCCN3CCOCC3)c3nc4ccccc4n3C2)cc1`, for which the IC50 was 128 µM.

For `COc1cc(C)c(Cc2cnc(N)nc2N)cc1OC`, the IC50 was 5.98 µM.

As for `CCC(C)NC(=O)c1cn(CC)c2cc(N3CCN(C)CC3)c(F)cc2c1=O` (stereo not drawn), the IC50 was 38.2 µM.

Take `N=c1n(CCN2CCCCC2)c2ccccc2n1CC(O)c1ccc(Cl)c(Cl)c1` (stereo not drawn): the IC50 is 19.8 µM.

With `CCc1ccc(NC(=O)C[n+]2cc(-c3ccc(C)cc3)n3c2CCC3)cc1`, the IC50 is 37.2 µM.

As to `O=C(CN1CC[n+]2c(-c3cccs3)csc21)c1ccc(-c2ccccc2)cc1`, the IC50 was 20.3 µM.

Regarding `OC(c1cc(C(F)(F)F)nc2c(C(F)(F)F)cccc12)C1CCCCN1` (stereo not drawn), the IC50 was 19.1 µM.

For the compound `Cc1ccc(C)c(N/C(N)=N/c2nc(C)cc(C)n2)c1`, the IC50 is 67.4 µM.

Take `CN(C)CCCN(C(=O)COc1ccccc1)c1nc2ccc(Cl)cc2s1`: the IC50 is 40.5 µM.

Consider `O=C(CN1C2=NCCCN2c2ccccc21)c1ccc(Br)s1`, for which the IC50 was 40.2 µM.

As for `O=C(NC(=S)NNC(=O)c1cccs1)c1ccc(Br)o1`, the IC50 was 60.2 µM.

Take `CCCCCCCCCCOC(=O)Cn1c(COc2ccc(OC)cc2)[n+](C)c2ccccc21`: the IC50 was 12.1 µM and 10 µM.

As to `O=C(N/N=C/c1ccc([N+](=O)[O-])s1)c1ccccc1Br`, the IC50 was 77.5 µM.

For the compound `Clc1ccc(CNCc2cccs2)cc1Cl`, the IC50 is 45.4 µM.

For the compound `O=CN/N=C/c1c(O)ccc2ccccc12`, the IC50 was 33.1 µM.

As to `CN1C(=O)NC(c2cccc(O)c2)C(C(=O)c2cccs2)C1(O)C(F)(F)F` (stereo not drawn), the IC50 is 24.6 µM.

As to `O=C(NCCCN1CCN(c2ccc(F)cc2)CC1)Nc1ccc([N+](=O)[O-])cc1`, the half-inhibitory concentration (IC50) was 74.7 µM.

As to `COc1ccc(C(C[N+](=O)[O-])C2(c3ccc(OC)c(OC)c3)C(=O)c3ccccc3C2=O)cc1` (stereo not drawn), the IC50 is 18.2 µM.

For `CCCCCC[N+](C)(C)CC/C=C1/c2ccccc2Sc2ccc(Cl)cc21`, the 50% inhibitory concentration (IC50) was 26.2 µM.

For the compound `C/C(=N\NC(=O)c1cccc(Br)c1)c1ccccn1`, the IC50 is 31.6 µM.

With `O=C(c1ccc([N+](=O)[O-])o1)N1CCOCC1`, the concentration for half-maximal inhibition (IC50) was 81.8 µM.

With `Cc1ccccc1C(=O)NNC(=S)NC(=O)COc1ccccc1`, the IC50 was 126 µM.

Turning to `CCOC(=O)C1=C(C(C)=O)C(c2cccnc2)C(C#N)=C(N)O1` (stereo not drawn), the IC50 was 57.5 µM.

For `O=Nc1ccc(O)c2ncccc12`, the half-inhibitory concentration (IC50) was 20 µM.

Consider `CCN1CCN(Cc2ccc(NC(=O)c3ccc(C)c(NC(=O)C(=O)c4c[nH]c5ccccc45)c3)cc2C(F)(F)F)CC1`, for which the IC50 is 59.3 µM.

As for `N#C/C(N=Nc1ccccc1O)=N\Nc1ccccc1O`, the IC50 is 20.2 µM.

Take `CC(C)(C)CC(C)(C)c1ccc(OCCOCC[N+](C)(C)Cc2ccccc2)cc1`: the IC50 was 21.6 µM.

Take `CCCOc1ccc(C(=O)NNC(=S)NC(=O)CC)cc1`: the half-maximal inhibitory concentration (IC50) is 28.7 µM.

As to `CCCCOCCCNc1ncnc2c1[nH]c1ccccc12`, the IC50 was 77.4 µM.

Take `CC1CCN(CCOCCOc2ccc(Br)cc2Cl)CC1`: the IC50 was 97.8 µM.

On to `CCc1ccc(NC(=O)Nc2ccncc2)cc1`, for which the IC50 is 88.4 µM.

On to `CCCCCCCCCCCCCCCC[n+]1ccc(C(N)=O)cc1`, for which the IC50 was 9.85 µM.

For `CC1(C)N=C(N)NC(Nc2ccc(Br)cc2)=N1`, the IC50 is 109 µM.

On to `CCCCOc1ccc(NC2=NC3(CCCCC3)N=C(N)N2)cc1`, for which the IC50 was 34.7 µM.

Consider `O=C(CSc1nc2ccccc2[nH]1)Nc1ccc(F)c(F)c1`, for which the IC50 was 74.2 µM.

Regarding `Oc1cccc(Nc2nc(NCC3CCCO3)c3ccccc3n2)c1` (stereo not drawn), the IC50 is 38.1 µM.

`OCCNc1nc(Nc2ccccc2)nc2ccccc12`: the IC50 was 22.4 µM.

As for `CCCNC1=C(C)C(=O)C2=C(C1=O)C(COC(N)=O)[C@]1(OC)C3NC3CN21` (stereo partly drawn), the 50% inhibitory concentration (IC50) was 21.3 µM.

On to `CN(C)CCOC(=O)c1sc2ccccc2c1Cl`, for which the half-inhibitory concentration (IC50) was 125 µM.

As for `Oc1c(I)cc(Cl)c2cccnc12`, the IC50 was 5.62 µM.

Consider `Cc1nc(N)c(Cc2ccc(Cl)cc2Cl)c(N)n1`, for which the IC50 was 30.4 µM.

`NCCCC[C@H]1CN=C(N)N1CCC12CC3CC(CC(C3)C1)C2`: the IC50 is 86.4 µM.

On to `O=C(N/N=C/c1ccccn1)c1ccc(Br)o1`, for which the IC50 is 45.1 µM.

Regarding `Oc1ccccc1-c1cc(C(F)(F)C(F)F)[nH]n1`, the IC50 is 81.2 µM.

As to `c1ccc(CNc2nc(N3CCN(Cc4ccccc4)CC3)nc3ccccc23)cc1`, the IC50 is 25.4 µM.

Consider `O=[N+]([O-])c1cccc2c(N3CCCC3)ccnc12`, for which the IC50 was 32.8 µM.

As for `CC(=O)NC(=S)NNC(=O)c1ccc(Br)cc1`, the IC50 is 29.4 µM.

`Cc1ccc(C(C[N+](=O)[O-])c2c(N)n(C)c(=O)n(C)c2=O)cc1` (stereo not drawn): the IC50 was 61.3 µM.

For the compound `Cc1ccc(OCc2nnc(NC(=O)c3cccnc3)s2)cc1`, the IC50 was 52 µM.

Consider `Cc1cccc(Nc2nc(NCc3ccco3)c3ccccc3n2)c1`, for which the IC50 was 14 µM.

Take `COc1ccccc1Nc1c2ccccc2nc2ccccc12`: the IC50 is 99.9 µM.

For the compound `N/C(=N\OS(=O)(=O)c1ccc2ccccc2c1)c1cccnc1`, the IC50 was 17.3 µM.

Regarding `CC(=O)NC(c1ccc(Cl)cc1Cl)c1ccc2cccnc2c1O` (stereo not drawn), the IC50 is 39.6 µM.

In the case of `O=C(Nc1ccc([N+](=O)[O-])cc1Cl)c1cc(Cl)ccc1O`, the IC50 was 19.7 µM.

Take `Cc1ccc(C)c(Nc2cc(C)nc3ccccc23)c1`: the IC50 was 54.9 µM.

With `CCSc1ccc2c(c1)N(CCCN1CCN(C)CC1)c1ccccc1S2`, the IC50 is 71.2 µM.

For the compound `O=C(Nc1nccs1)c1ccc(Cl)cc1[N+](=O)[O-]`, the IC50 is 97.6 µM.

For the compound `CCN(CC(=O)NC(C)(C)C)C(=O)COc1c(Cl)cc(Cl)c2ccc(C)nc12`, the IC50 was 19 µM.

As to `C#CCOCCOCCOCCNc1nc(N2CCN(C(=O)CCCCCCCCCCNC(=O)[C@H]([C@@H](C)CC)n3cc(CCCCN=C(N)N)nn3)CC2)nc(N2CCN(C(=O)CCCCCCCCCCNC(=O)[C@H](CCCCN)n3cc(C)nn3)CC2)n1`, the IC50 was 47.3 µM.

For the compound `C/C(=N\Nc1ccc2nncn2n1)c1ccccn1`, the IC50 is 37.2 µM.

For `O=Nc1c(O)c2ccccc2c2ccccc12`, the IC50 was 37.7 µM.

On to `O=C(N/N=C/c1cc(Cl)ccc1O)c1cccnc1`, for which the IC50 is 20.9 µM.

For `Cc1ccc(C)c(NC(=O)c2ccccc2O)c1`, the IC50 was 58.1 µM.

In the case of `O=C(CCN1CCN(c2ccccc2)CC1)c1ccc(Br)cc1`, the IC50 is 70.1 µM.

With `COc1ccc(/C=C/C(=O)NC(=S)NNC(=O)c2cnccn2)cc1`, the IC50 is 30.6 µM.

For `O=C(N/N=C/c1sc2ccccc2c1O)c1cccc2ccccc12`, the IC50 was 25.8 µM.

Consider `O=C1NCCN1c1ncc([N+](=O)[O-])s1`, for which the IC50 is 28.2 µM.

Regarding `O=C(NNc1nc2ccc(F)cc2s1)c1cccc(F)c1`, the IC50 is 46.8 µM.

As to `O=C(C[n+]1cc(-c2ccc(Cl)c(Cl)c2)n2c1CCC2)N1c2ccccc2Sc2ccccc21`, the IC50 is 19.4 µM.

Take `CS(=O)(=O)c1ccc2nc(NC(=O)c3ccc(Cl)nc3)sc2c1`: the IC50 was 27.8 µM.

Turning to `CCn1cc(C(=O)O)c(=O)c2ccc(C)nc21`, the IC50 was 83.7 µM.

As to `Oc1[nH]c2ccccc2c1N=NC(=S)N1CCOCC1`, the IC50 is 21.2 µM.

Turning to `O=C(CN1CCCC1)Nc1ccc(-c2nc3cc(NC(=O)CN4CCCC4)ccc3o2)cc1`, the IC50 was 57.1 µM.

Take `O=c1c2c([nH]c3ccccc13)CCCCC2`: the IC50 was 113 µM.

`CN1CCN(C(c2ccc(C(F)(F)F)cc2)c2ccc3cccnc3c2O)CC1` (stereo not drawn): the IC50 is 21.8 µM.

Turning to `CCCCc1ccc(N/C(N)=N/c2nc(C)cc(C)n2)cc1`, the IC50 is 52.3 µM.

Regarding `CCN1/C(=C/C=C/C=C/c2sc3ccccc3[n+]2CC)Sc2ccccc21`, the 50% inhibitory concentration (IC50) was 9.68 µM.

In the case of `CCN1/C(=C/c2cc[n+](C)cc2)C=Cc2cc(C)ccc21`, the IC50 was 39.4 µM.

In the case of `CC(C)(c1ccccc1)c1ccc(OCCCNCCO)cc1`, the IC50 was 29 µM.

As for `CCCCCc1ccc(OCCCC[n+]2ccccc2)c(CCCCC)c1`, the IC50 is 36.3 µM.

In the case of `N#C/C(=N\Nc1ccc([N+](=O)[O-])cc1)C(N)=S`, the IC50 was 108 µM.

Regarding `COc1ccc(CNCC(O)COc2ccc(C(C)(C)c3ccccc3)cc2)cc1` (stereo not drawn), the IC50 is 20.4 µM.

For the compound `c1ccc2c(c1)OC(CCCN1CCCCC1)c1ccccc1S2` (stereo not drawn), the IC50 is 76.4 µM.

Consider `CN1CCN(C(c2cccc(Cl)c2)c2ccccc2Cl)CC1` (stereo not drawn), for which the IC50 is 68.2 µM.

On to `CCC(C)(C)c1ccc(OCCCC[n+]2ccccc2)c(C(C)(C)CC)c1`, for which the IC50 was 35.3 µM.

Consider `CNC[C@@H](Cc1ccccc1)NC[C@@H](CC1CCCCC1)NCCCc1ccccc1`, for which the IC50 is 19.8 µM.

Consider `O=[N+]([O-])c1ccc(N2CCNCC2)cc1NCc1cccnc1`, for which the IC50 was 73.8 µM.

For the compound `COc1ccc2[nH]c3c(C)c4ccncc4c(C)c3c2c1`, the IC50 is 21.5 µM.

Take `NC(N)=N/N=C/c1ccc(OCc2ccc(Cl)cc2)cc1`: the IC50 was 26.7 µM.

`CC1(C)N=C(N)N=C(N)N1c1ccc(Oc2ccc(Cl)cc2)c(Cl)c1`: the IC50 was 36.3 µM.

For `Nc1nc(Nc2ccccc2)nc2ccccc12`, the IC50 is 42.4 µM.

Take `COc1cc(/C=N/N=C(N)N)ccc1OCc1ccc(Cl)cc1`: the IC50 was 46.8 µM.

On to `COC12C(COC(N)=O)C3=C(C(=O)C(C)=C(N)C3=O)N1CC1C2N1C` (stereo not drawn), for which the IC50 was 3.12 µM.

With `Fc1cccc(Nc2c3c(nc4ccccc24)CCC3)c1`, the IC50 is 76.6 µM.

As for `Cc1nonc1C(=O)N/N=C/c1ccc([N+](=O)[O-])o1`, the IC50 is 51.9 µM.

As to `CCn1cc(C(=O)O)c(=O)c2cc(F)c(N3CCN(C(=S)NC(=O)c4cc(OC)cc(OC)c4)CC3)cc21`, the IC50 is 143 µM.

For `CCn1cc(C(=O)O)c(=O)c2cnc(N3CCNCC3)nc21`, the IC50 was 50.1 µM.

As for `CC(C)(C)c1ccc(NC(=O)COC(=O)c2ccc([N+](=O)[O-])s2)cc1`, the IC50 is 15.1 µM.

One may read the IC50 as the concentration needed to halve the response being measured.

The values above are taken from PubChem BioAssay AID2384 (Southern Research Specialized Biocontainment Screening …, 2010).
